Earlier results as cited in patent US4496540A, “Therapeutic compounds” (Biomeasure, Inc., priority 1982, dated 1985).

Tested on: enkephalinase

## O=C(O)CNC(=O)C(CS)Cc1ccccc1 (racemic) [Thiorphan, (DL-3-mercapto-2-benzylpropanoyl) glycine]
In vitro, Roques et al. (1980)
  protection of the enkephalins from the action of enkephalinase in vitro: protects the enkephalins from the action of enkephalinase in vitro in nanomolar concentration
Known inhibitors, Llorens et al. (1981)
  inhibition of enkephalinase: inhibited
